Molecules are shown by their SMILES.

By mortality is commonly meant the percentage killed.

The test system of data set [1] is Ae. aegypti + An. albimanus. The data set can be described thus: Bite protection of FRACUs (Defender-M) treated with insecticides. The data set is classed as in vivo. The note with it: FRACU (Defender-M) sleeve; allethrin 0.085, bioresmethrin 0.106, etofenprox 0.101, bifenthrin 0.101 mg/cm^2. On the procedure: Biological Evaluation: Bite protection assays were conducted with laboratory-reared 7-12 day old mosquitoes or sand flies. The species used throughout these studies are Aedes aegypti (Orlando, 1952) and Phlebotomus papatasi sand flies (Jerusalem, 1983). Females were pre-selected using either a hand draw box or a mechanical aspirator.
An assay was conducted by wearing sewn sleeves made from clothing material. Treated specimens were assayed with untreated controls to correct for the bite resistance afforded by material construction and composition. The untreated control was tested at the beginning of the experiment, followed by successively higher candidate repellent concentrations on sleeves. Sleeves were sewn from a cut out single ply trapezoidal pattern (33.2 cm×21 cm×25.5 cm height) of material. Sleeves were normally with a candidate repellent at the EPA permethrin label rate of 0.52% weight on (+5% tolerance) or less (0.125 mg/cm^2 for the 50/50 Nylon/Cotton (NYCO) Army Combat Uniform and 0108 mg./cm2 for the 65% Rayon/25% Para-aramid/10% Nylon Fire-Resistant Army Combat Uniform). Permethrin was 35:65cis: trans, 95.85% technical material. Experimental repellents were received as neat samples with <5% impurities. The treatment occurred by dissolution of repellent in suitable quantity of acetone to saturate the clothing, but minimizing excess solution. Excess solution was quantified and this amount of excess was then used to calculate the estimated amount of repellent applied to the material.
Insects were maintained in colony at approximately 78° F. and 60-80% RH. The photoperiod was 12:12. The mosquito cages were approximately 60000 cm^3 and each contained 175 to 225 female mosquitoes. […] Cages for sand fly work were slightly smaller (15000 cm^3) and constructed of acrylic for filming purposes and with screens on the exterior edges to allow air flow through the system. About 20-40 sand flies were released in cages for each assay. Assays started when the sleeved arm was inserted through the sleeve into the cage. Normally the hand was protected by a glove, but there were situations (i.e. sand fly data presented here) when the ability of a repellent to protect the untreated hand was determined. The assay periods were 15 min for the mosquitoes and 25-30 minutes for sand flies. The insects were allowed to land, probe and possibly bloodfeed during this time. At the conclusion of the experiment, all insects were knocked down or aspirated and the percentage that bloodfed of the total female test population in the cage was recorded. The protect level was calculated by Abbott's formula as a percentage reduction in bites compared to the untreated fabric control sleeve.
We were able to examine several treatments on the FRACU fabric sleeves (Table 7). […]

Data set [2] deals with bed bugs (Cimex lectularius). The experiment in a line: Bed bug mortality on treated filter paper. The note with it: 24 h. The format is in vivo.
For data set [3], the system named is bed bugs (Cimex lectularius). The experiment in a line: Bed bug mortality on treated filter paper. The format is in vivo. On the procedure: Knockdown data and mortality for volatile pyrethroids against bed bugs (Cimex lectularius): Compounds were dissolved in acetone to yield concentrations of 100 μg/cm^2, 10 μg/cm^2, and 1 μg/cm^2 and 47 mm filter paper disks were treated. Acetone-treated filter paper was used as a negative control. Mixed stages (nymphs and adults) of a laboratory colony of the bed bug Cimex lectularius were placed on the treated filter paper in glass Petri dishes and mortality was recorded 24 h later, at which time bed bugs were removed to untreated surfaces. 24 h after this transfer another assessment of mortality was made to see if any dead or moribund bugs had recovered.

The subject of data set [4] is Mosquitoes, either Aedes aegypti (Liverpool) or Anopheles stephensi Liston. The experiment in a line: K&D module in vitro bioassay: biting protection, knockdown and mortality. The format is in vivo. On the procedure:
In vitro bioassays were conducted as described by Klun et. al. (Klun, J. A., et al., J. Med. Entomol., 40: 293-299 (2005)). Each test replicate consisted of 3 treatments: a control (EtOH); a standard (Deet, 4.54 nmol/μl); and an experimental compound (pyrethroid analogs, 4.54 nmol/ul). The 3 treatments were randomly assigned to consecutive cells in 2, 6-cell reservoirs connected in series to a single water-bath pump; thus, 4 replicates could be tested/run. Tests were performed in an Air Science USA hood, with an air movement velocity of approx. 110-120 ft./min., temperature of 25-27° C., and RH of 15-25%. A 6-celled reservoir was connected to and heated by a constant-temperature (38° C.) water circulator (Lauda E100, Wobser GMGH and Co., Konigshofell, Germany).
Prior to each test, the upper surface of each reservoir was coated with a thin layer of high-vacuum silicone grease (Dow Corning Corp., Midland, Mich.), and the cells then filled (approx. 6 ml. capacity) or topped-off with either: (1) expired human red blood cells suspended in citrate-phosphate-dextrose-adenine (CPDA) solution, not more than 1 month past expiration date, and to which 110 mg ATP/35 ml. blood-CPDA had been added on the day of testing; or (2) CPDA+ATP×^−3, usually made up or diluted to 10^−3 ATP on the day of testing. The filled cells were then covered with an Edicol collagen membrane (Devro, Sandy Run, S.C.) strip, and then with a just-treated (110 μl of 4.54 nmol/μl treatment or control solution) organdy cloth (G Street Fabrics, Rockville, Md.) strip. Mosquitoes used in tests were either Aedes aegypti_(Liverpool) or Anopheles stephensi_Liston. K&D modules containing 5 adult females/cell were placed over a Teflon separator atop each reservoir; the sliding floors opened allowing access to the treated organdy cloth and membrane-covered cell; and the number of mosquitoes biting (proboscis inserted through the cloth) and/or observed to be engorged within each cell at the end of a 3-5 min. exposure period was recorded. Mosquitoes were used only once in a test, and then frozen and discarded.
Only tests in which 3 or more females fed in the control cell were analyzed, as lower feeding rates are indicative of substandard feeding readiness of that group of mosquitoes.
[…] Data were collected to record knockdown in 6 minutes, one hour and 24 hours post exposure.

The next data set concerns Ae. aegypti mosquitoes. The data set can be described thus: Sleeve bite protection assay on treated uniform fabric, mosquitoes. The format is in vivo, Aedes aegypti (Orlando, 1952). On the procedure: (§1) Biological Evaluation: Bite protection assays were conducted with laboratory-reared 7-12 day old mosquitoes or sand flies. The species used throughout these studies are Aedes aegypti (Orlando, 1952) and Phlebotomus papatasi sand flies (Jerusalem, 1983). Females were pre-selected using either a hand draw box or a mechanical aspirator. An assay was conducted by wearing sewn sleeves made from clothing material. Treated specimens were assayed with untreated controls to correct for the bite resistance afforded by material construction and composition. The untreated control was tested at the beginning of the experiment, followed by successively higher candidate repellent concentrations on sleeves. Sleeves were sewn from a cut out single ply trapezoidal pattern (33.2 cm×21 cm×25.5 cm height) of material. […] Permethrin was 35:65cis: trans, 95.85% technical material. Experimental repellents were received as neat samples with <5% impurities. The treatment occurred by dissolution of repellent in suitable quantity of acetone to saturate the clothing, but minimizing excess solution. Excess solution was quantified and this amount of excess was then used to calculate the estimated amount of repellent applied to the material. […] The photoperiod was 12:12. The mosquito cages were approximately 60000 cm^3 and each contained 175 to 225 female mosquitoes. […] Cages for sand fly work were slightly smaller (15000 cm^3) and constructed of acrylic for filming purposes and with screens on the exterior edges to allow air flow through the system. About 20-40 sand flies were released in cages for each assay. Assays started when the sleeved arm was inserted through the sleeve into the cage. Normally the hand was protected by a glove, but there were situations (i.e. sand fly data presented here) when the ability of a repellent to protect the untreated hand was determined. The assay periods were 15 min for the mosquitoes and 25-30 minutes for sand flies. The insects were allowed to land, probe and possibly bloodfeed during this time. At the conclusion of the experiment, all insects were knocked down or aspirated and the percentage that bloodfed of the total female test population in the cage was recorded. The protect level was calculated by Abbott's formula as a percentage reduction in bites compared to the untreated fabric control sleeve. Specific conditions for bioassays are noted with corresponding data contained in the Tables.

Data set [5] relates to Phlebotomus papatasi sand flies. The data set can be described thus: Sleeve bite protection assay on treated uniform fabric, sand flies. The note with it: FRACU, permethrin sleeve 0.134 mg/cm^2 + treated strip, hand ungloved; strip TL-I-73 0.167, transfluthrin 0.161 mg/cm2. The data set is classed as in vivo, Phlebotomus papatasi (Jerusalem, 1983). On the procedure: as §1
[6] abbreviates: ACU sleeve, No Glove on hand, permethrin 0.118, transfluthrin 0.108 mg/cm^2.
[7] abbreviates: ACU sleeve, stored one year then tested, concentrations as E1.
The mark [8] stands for this setting: FRACU sleeve, concentrations as E9.
Setting [9] is: FRACU, untreated sleeve + treated strip, Ultrathon (34.34% DEET) on hand, TL-I-73 0.163, transfluthrin 0.158 mg/cm^2.
Where [10] appears, read: FRACU, untreated sleeve + treated strip, hand gloved, TL-I-73 0.163, transfluthrin 0.158 mg/cm^2.

With `Cc1c(COC(=O)[C@@H]2[C@H](/C=C(\Cl)C(F)(F)F)C2(C)C)cccc1-c1ccccc1` (racemic) [Bifenthrin], the “Bite Protection (% ± SE) (Ae. aegypti + An. albimanus)” value (“Bite Protection (% ± SE)” for short) in data set [1] is 91.5 ± 1.1%.

Consider `C=CCC1=C(C)C(OC(=O)C2C(C=C(C)C)C2(C)C)CC1=O` (stereo not drawn) [Allethrin], for which the “Bite Protection (% ± SE)” value in data set [1] is given as 98.7 ± 0.8%.

`CC(C)=C[C@@H]1[C@@H](C(=O)OCc2coc(Cc3ccccc3)c2)C1(C)C` [Bioresmethrin]: in data set [1], the “Bite Protection (% ± SE)” value was 98.1 ± 0.8%.

For `CCOc1ccc(C(C)(C)COCc2cccc(Oc3ccccc3)c2)cc1` [Etofenprox], the “Bite Protection (% ± SE)” value in data set [1] stood at 94.9 ± 0.6%.

`Cc1c(Cl)c(Cl)c(COC(=O)[C@@H]2[C@@H](C=C(Cl)Cl)C2(C)C)c(Cl)c1Cl` [TL-I-111]: the mortality at 5 µg/cm2 in data set [2] was found to be 100%. Also, in data set [3] (Cimex lectularius, 24 h), the mortality at 1 µg/cm2 was 0%, the mortality at 10 µg/cm2 was determined as 100% and the mortality at 100 µg/cm2 stood at 100%.

With `CC1(C)[C@H](C=C(Cl)Cl)[C@H]1C(=O)OCc1c(F)c(F)cc(F)c1F` [Transfluthrin, transfluthrin], the “Knockdown 6 min (%)” value in data set [4] (2.5 nM\cm^2, K&D module) was determined as 100%; in data set [4] (25 nM\cm^2, K&D module) it was 100%. Also, the “Knockdown 24 hours (%)” value in data set [4] (2.5 nM\cm^2, K&D module) was found to be 100%; in data set [4] (25 nM\cm^2, K&D module) it was 100%. Further, the “Not feeding 3 minutes (%)” value in data set [4] (2.5 nM\cm^2, K&D module) is on record as 100%; in data set [4] (25 nM\cm^2, K&D module), 100%. Also, the “Knockdown 1 hour (%)” value in data set [4] (2.5 nmol/cm^2, K&D module) is on record as 100%; in data set [4] (25 nmol/cm^2, K&D module) it was 100%. The compound further came in with a mortality at 0.0025 µM in data set [4] (Aedes aegypti, 24 h) of 100%. In addition, the mortality at 0.025 µM in data set [4] (Aedes aegypti, 48 h) was 100%. The “Blood-fed #” value with Ae. aegypti mosquitoes (ACU (50/50 NYCO) sleeve, glove on hand, 15 min, permethrin 0.118, transfluthrin 0.108, TL-I-107 0.107, TL-I-141 0.109, TL-I-105 0.107, TL-I-73 0.102 mg/cm^2) is on record as 0 #; with Ae. aegypti mosquitoes (setting [6]) it was 4 #; with Ae. aegypti mosquitoes (ACU sleeve, treated specimens stored in refrigerator for one year then tested, concentrations as E1) it was 0 #; in the data set on Ae. aegypti mosquitoes (FRACU (65% Rayon, 10% Nylon, 25% Para-aramid) sleeve, permethrin 0.071, combination permethrin 0.031 + transfluthrin 0.038, transfluthrin 0.052 mg/cm^2), 0 #; in the data set with Ae. aegypti mosquitoes (FRACU, untreated sleeve + treated strip (20.5 cm × 2.6 cm) at wrist, hand gloved, TL-I-73 0.163, transfluthrin 0.158 mg/cm^2), 11 #; in the data set with Ae. aegypti mosquitoes (FRACU, untreated sleeve + treated strip, Ultrathon 12 hr repellent (34.34% DEET) on hand, TL-I-73 0.163, transfluthrin 0.158 mg/cm^2) it was 6 #. The “Bite Protection (%)” value in the data set with Ae. aegypti mosquitoes (ACU (50/50 NYCO) sleeve, glove on hand, Abbott's formula vs untreated sleeve, concentrations as E1) is listed as 100%; in the data set on Ae. aegypti mosquitoes (setting [7]) it was 100%; in the data set with Ae. aegypti mosquitoes (setting [8]) it was 100.0%; in the data set with Ae. aegypti mosquitoes (FRACU sleeve, concentrations as E9, listed as transfluthrin) it was 100%; in the data set on Ae. aegypti mosquitoes (FRACU, permethrin sleeve 0.134 mg/cm^2 + treated strip, hand gloved, strip TL-I-73 0.167, transfluthrin 0.161 mg/cm^2) it was 100%; in the data set with Ae. aegypti mosquitoes (setting [9]) it was 89.2%. Further, the figures for the “Bite Protection (%)” value (in the data set with Ae. aegypti mosquitoes (setting [10]); in data set [5]) were 93.3% and “significant protection from sand fly bites to the unprotected hand”, respectively. Also, the “Fed (%)” value with Ae. aegypti mosquitoes (ACU (50/50 NYCO) sleeve, glove on hand, concentrations as E1) amounted to 0.0%; in the data set with Ae. aegypti mosquitoes (setting [6]), 2.1%; with Ae. aegypti mosquitoes (setting [7]), 0.0%; in the data set with Ae. aegypti mosquitoes (setting [8]), 0.0%; with Ae. aegypti mosquitoes (setting [9]), 2.9%; in the data set with Ae. aegypti mosquitoes (setting [10]) it was 5.5%. Further, the “protecting non-repellent treated surfaces of skin (i.e. the hand)” value with Ae. aegypti mosquitoes (ACU sleeve, glove removed from hand, compared with permethrin) was “superior to permethrin”. For the same compound, the bite protection with Ae. aegypti mosquitoes (Defender-M FRACU sleeve at 0.52 mg/cm2) worked out at 100%. The “mortality (in words)” value in data set [3] (at either 100 μg/cm^2 or 10 μg/cm^2) is given as “no mortality or mortality less than 100%”. Further, in data set [3] (concentration not clearly stated for this group), the “mortality (value in parentheses)” value came out at 20%.

(Values after US8822533B1, “Methods and compositions for repelling and/or killing insects” (The United States of America, as represented by the …, priority 2011, dated 2014).)
